Measured values as given in patent publication US20130028920A1, “STABILIZED ANTIBODY PREPARATIONS AND USES THEREOF” (UNIVERSITE DE GENEVE, priority 2010, published 2013).
“Also recorded” adds a separate entry of the source.

Assays:
Format in all cases: physicochemical
bevacizumab = experiment: Stability of dialyzed, pre-stressed bevacizumab alone and with AMP, percentage of monomers by AFFF-MALS
Description: A 50 mM phosphate buffer pH 7.0 was used. The buffer choice was based on a pH range and buffer capacity that is physiologically tolerated and that is acceptable for the stability of antibodies. […] Samples were analyzed directly after preparation (t0) and after 7, 14 and 28 days. The aggregation state of the antibodies was measured by multi-angle light scattering (MALS) after separation by asymmetrical flow field-flow fractionation (AFFF). […] Data were collected and analysed with the Astra software (Wyatt Technology Europe GmbH, Dernbach, Germany). The aggregation state was expressed as the percentage of monomers versus time.

Avastin® [1] = experiment: Effect of AMP on the unmodified commercial bevacizumab formulation (Avastin®), stability by AFFF-MALS; conditions: 40° C., 28 days, p<0.05
Description: (§1) All samples were stored at 40° C. during 28 days. Samples were analyzed directly after preparation (t0) and after 7, 14 and 28 days. The aggregation state of the antibodies was measured by multi-angle light scattering (MALS) after separation by asymmetrical flow field-flow fractionation (AFFF). […] Data were collected and analysed with the Astra software (Wyatt Technology Europe GmbH, Dernbach, Germany). The aggregation state was expressed as the percentage of monomers versus time.
All samples are stored at a temperature of 40° C. for 28 days and the stability is measured as described in Example 3 and compared to a sample of Avastin® alone stored under the same conditions.

Avastin® [2] = experiment: Stability of pre-stressed Avastin® with ATP, GMP or sucrose phosphate, by AFFF-MALS; conditions: for stabilization of Avastin® across molar ratios: Avastin®:compound 1:1, 1:10 and 1:100, pre-stressed, PBS pH 7.0, 40° C., up to 28 days; for Short-term effects on the antibody, compared among ATP, GMP and sucrose phosphate: short term after addition
Description: as §1, with “Samples were analyzed directly after preparation (t0) and after 7, 14 and 28 days.” left out
After pre-stressing, Avastin® samples were combined with either ATP, GMP or sucrose phosphate at three Avastin®: compound of formula (I) molar ratios (1:1, 1:10 and 1:100). All samples are stored at a temperature of 40° C. for 28 days and stability is measured as described in Example 3 and compared to a sample of Avastin® alone stored under the same conditions. For GMP, a dilution of GMP was made in PBS pH 7.0 and pH was adjusted to 7.0 before the combination with Avastin® to prevent the risk of higher order aggregates caused by the addition of NaOH directly to the antibody formulation.

[3] = molar ratio 1:1, t1 (1 day at 40° C.)
[4] = molar ratio 1:10, t1 (1 day at 40° C.)
[5] = molar ratio 1:100, t1 (1 day at 40° C.)

Row | Compound | percentage of monomers (bevacizumab; formulations of bevacizumab with AMP (1:153 by context), 14 days at 40° C., pH 7.0, n=3) | percentage of monomers (bevacizumab; molar ratio bevacizumab:AMP 1:1.53, 14 days at 40° C., pH 7.0) | percentage of monomers (bevacizumab; molar ratio bevacizumab:AMP 1:1.53, 28 days at 40° C., pH 7.0, n=3) | percentage of monomers (bevacizumab; molar ratio bevacizumab:AMP 1:15.3, 14 days at 40° C., pH 7.0) | percentage of monomers (bevacizumab; molar ratio bevacizumab:AMP 1:15.3, 28 days at 40° C., pH 7.0, n=3) | percentage of monomers (bevacizumab; molar ratio bevacizumab:AMP 1:153, 28 days at 40° C., pH 7, n=3) | stabilization of the antibody (increase in monomers) versus Avastin® alone (Avastin® [1]; Avastin®:AMP 1:10) | stabilization of the antibody (increase in monomers) versus Avastin® alone (Avastin® [1]; Avastin®:AMP 1:100) | stabilization of Avastin® across molar ratios (Avastin® [2]) | aggregation breaker strength in experiments (Avastin® [2]; compared with AMP) | stabilizing effect versus Avastin® alone (Avastin® [2]; [3]) | stabilizing effect versus Avastin® alone (Avastin® [2]; [4]) | stabilizing effect versus Avastin® alone (Avastin® [2]; [5]) | stabilizing effect versus Avastin® alone (Avastin® [2]; molar ratio 1:100, t28 (28 days at 40° C.)) | Short-term effects on the antibody, compared among ATP, GMP and sucrose phosphate (Avastin® [2]) | stabilizing properties, compared among ATP, GMP and sucrose phosphate (Avastin® [2]; after 28 days of storage at 40° C.)
1 | Nc1ncnc2c1ncn2[C@@H]1O[C@H](COP(=O)(O)O)[C@@H](O)[C@H]1O [AMP, adenosine 5′-monophosphate] | higher than 94% | higher than 80% | higher than 76% | higher than 80% | higher than 76% | around 90% | significant stabilization is observed at t1, t14 and t28 | such a stabilization is observed only at longer incubation times (t14 and t28) |  |  |  |  |  |  |  | 
2 | Nc1ncnc2c1ncn2[C@@H]1O[C@H](COP(=O)(O)OP(=O)(O)OP(=O)(O)O)[C@@H](O)[C@H]1O [ATP, adenosine 5′-triphosphate] |  |  |  |  |  |  |  |  | concentration dependent stabilization | less strong breaker than AMP | stabilizing effect is observed | stabilizing effect is observed | stabilizing effect is observed | significant stabilizing effect | most pronounced | 
3 | Nc1nc2c(ncn2[C@@H]2O[C@H](COP(=O)(O)O)[C@@H](O)[C@H]2O)c(=O)[nH]1 [GMP, guanosine 5′-monophosphate] |  |  |  |  |  |  |  |  | concentration dependent stabilization |  | destabilizing | destabilizing | shows an ability to stabilize the antibody |  |  | most distinct stabilizing properties
4 | sucrose phosphate |  |  |  |  |  |  |  |  | concentration-dependent stabilization; also recorded: concentration-dependent stabilizing effect continues up to 28 days |  | stabilizing effect is observed | stabilizing effect is observed | stabilizing effect is observed |  | most pronounced | 
